Measurements reported in PubChem BioAssay AID1508591.
“And” between values parts separate entries of the source, which are not always exact repeats. Equal entries are not always repeated.

Settings: rat; liver microsomes; pH 7.4; 15.0 min; 1.0 µM

Structure (SMILES)	half-life
Fc1ccc(CNc2nc(-c3ccccc3C(F)(F)F)nc3ccccc23)cc1	19.8 min
N#Cc1cnccc1-c1nc(Nc2ccc(F)c(F)c2)c2ccccc2n1	6.4 min
CCC(=O)NC(c1ccco1)c1cc(Cl)c2cccnc2c1O (configuration not stated)	3.3 min
N#Cc1cc(NC(=O)Nc2nnc(-c3ccncc3)s2)ccc1-c1cn[nH]c1	> 30 min
Cc1ccc(S(=O)(=O)Nc2cc(Cl)ccc2C(=O)Nc2nc(-c3ccccc3)cs2)cc1	7.65 min
C#CCNC(=O)c1nc(-c2cccnc2)c2ccccn12	14.8 min
COc1cccc(CNc2ccc(S(=O)(=O)Nc3ccc4ccccc4c3)cc2)c1O	10 min
CCc1ccc(NC(=O)c2[nH]c(C)c(C(C)=O)c2C)cc1[S+](=O)([O-])Nc1ccccc1C#N	> 30 min
COc1ccccc1C(=O)Nc1ccccc1C(=O)Nc1cccc(SC(F)(F)F)c1	18 min
Cc1c(Cl)cccc1NC(=O)CNS(=O)(=O)c1cccs1	5.47 min
Cc1cnc(-c2ccccc2C(F)F)nc1NCc1ccc(-n2ccnn2)cc1	21 min
O=S(=O)(Nc1nccs1)c1ccc(Nc2nc(-c3ccc(F)cc3)cs2)cc1	> 30 min
O=C(O)c1cccc(-c2cnc3ccccc3c2)c1	> 30 min
CN1CCc2cc3c(cc2C1)OCO3	1 min
COc1c(NS(=O)(=O)c2ccc(C)cc2)cccc1C(=O)Nc1nc(-c2ccccc2)cs1	9.7 min
CC(C)(N)CNC(=O)CC1CCC2(CC1)OOC1(O2)C2CC3CC(C2)CC1C3 (configuration not stated)	> 30 min
CCc1ccc(-n2nnc(-c3nsc(NC(=O)c4ccccc4Cl)n3)c2C)cc1	10.9 min
O=C(Nc1nc(-c2ccccc2)cs1)c1ccncc1NS(=O)(=O)c1ccc2ccccc2c1	8.4 min
Cc1ccc(S(=O)(=O)Nc2cnccc2C(=O)Nc2nc(-c3cc4ccccc4o3)cs2)cc1	20 min
C=CCc1ccc(O)c(-c2ccc(O)c(CC=C)c2)c1	2.36 min
N#Cc1cnc(NS(=O)(=O)c2ccc(NC(=O)Cc3ccc(F)c(Cl)c3)cc2)s1	> 30 min
COc1ccc(C2Nc3ccccc3C(=O)N2Cc2ccco2)cc1COc1ccc(NC(C)=O)cc1 (configuration not stated)	1.35 min and 2.57 min
CC1=C(C(=O)Nc2ccccc2C)C(c2ccccc2Br)N=C(Nc2nc3ccccc3o2)N1 (configuration not stated)	12 min
Cc1cccc2nc(-c3cccnc3)c(Nc3ccc(C(C)C)cc3)n12	1 min
O=C1Nc2ccc(I)cc2C1=Cc1cc(Br)c(O)c(Br)c1	> 30 min
C#CCNC(=O)c1nc(-c2ccc([S+](C)(=O)[O-])cc2)c2ccccn12	> 30 min
Cc1ccc(NC(=O)c2cc(-c3ccc(C)o3)nc3ccccc23)nc1	8.3 min

Structure (SMILES)	half-life
C[C@]12CC[C@@H]3[C@H](CCC4=CC(=O)CC[C@]43C)[C@]1(O)CC[C@@]2(O)C(=O)CO	20.9 min
Cc1cccc2oc(NC3=NC(c4[nH]ncc4Cl)C4=C(CCCC4=O)N3)nc12 (configuration not stated)	10.6 min
Cc1sc(NC(=O)Cc2ccc3c(c2)OCO3)nc1-c1ccc2c(c1)CCN2	8.6 min
O=S(=O)(Nc1ccc(-c2ccccc2)cc1)c1ccc(NCc2cccc(Cl)c2O)cc1	5.6 min
COC(=O)[C@@]12OC[C@]34[C@H]([C@@H](O)[C@@H]1O)[C@@]1(C)CC(=O)C(O)=C(C)[C@@H]1C[C@H]3OC(=O)[C@H](OC(=O)/C=C(\C)C(C)C)[C@@H]24	10.1 min
CCc1ccccc1-n1c(SCC(=O)Nc2ccc(C)cc2)nc2n[nH]c(C)c2c1=N	1.25 min
O=C(Cc1ccc(Cl)c(Cl)c1)Nc1ccc(S(=O)(=O)Nc2ccccc2)cc1	4.2 min
CC(C)(C)OC(=O)N[C@@H](Cc1ccc(O[S+](=O)([O-])c2cccc3cnccc23)cc1)C(=O)Nc1ccc(-c2ccccc2)cc1	2.55 min
CC(C)(C)c1ccc(S(=O)(=O)N2CCC(c3ccncc3)CC2)cc1	14.3 min
O=C1Nc2ccccc2/C1=C\c1ccc(O)c(F)c1	20 min
Cc1cc(N[S+](=O)([O-])c2ccc(NC(=O)Cc3ccc(F)c(F)c3)cc2)no1	> 30 min
CCOc1ccc(NC(=O)c2ccc(F)c(S(=O)(=O)N(CC)Cc3ccccc3)c2)cc1	1.3 min
Cc1nc([C@](C)(O)CO)sc1-c1cnc(N)c(O[C@H](C)c2cc(F)ccc2-n2nccn2)c1	22.6 min
Cc1ccc(S(=O)(=O)Nc2cc(Cl)cc(C(=O)Nc3nc(-c4ccccc4)cs3)c2)cc1	22 min
CC(Nc1ccc([S+](=O)([O-])Nc2nccs2)cc1)c1ccccc1 (configuration not stated)	13 min
O=C(Nc1nc2cc(C(F)(F)F)ccc2s1)c1ccc(-c2cccc([N+](=O)[O-])c2)o1	> 30 min
O=C(NC1CCCc2c1[nH]c1c(Cl)cccc21)c1ccc2c(c1)OCO2 (configuration not stated)	12.8 min
O=C1Nc2ccccc2/C1=C/c1cc(Cl)c(O)c(Cl)c1	> 30 min
CC1=C(C(=O)Nc2nnc(-c3ccccc3)s2)C(c2nn(C)cc2Cl)N=C(Nc2nc3ccccc3o2)N1 (configuration not stated)	11 min
O=C(Cc1ccc(Cl)c(Cl)c1)Nc1ccc(S(=O)(=O)Nc2cncnc2)cc1	> 30 min
O=C(Nc1ccc(OC(F)(F)F)cc1)c1sccc1NCc1ccnc2ccccc12	18.7 min
CN(C)C(=O)c1ccc(-c2cc[nH]c(=O)c2N)cc1	> 30 min
COc1cc2c3cc1Oc1c(O)c(OC)cc4c1[C@@H](Cc1ccc(cc1)Oc1cc(ccc1O)C[C@H]3N(C)CC2)N(C)CC4	29.8 min
Oc1ccc(CNc2cccnc2)c2cccnc12	3.56 min
Cc1ccc(CN2C(=O)C(O)(CC(=O)c3ccc(C)cc3)c3ccccc32)cc1 (configuration not stated)	1.18 min
Cc1cnc(-c2ccccc2C(C)C)nc1NCc1ccc(-n2ccnn2)cc1	10.3 min

Continued, values first:

half-life	Structure (SMILES)
3.16 min	CCOc1ccc(NC(=O)c2cccc(-n3cccc3)c2)cc1S(=O)(=O)N1CCOCC1
2.43 min	CC(C)C(=O)N1CCc2ccc(OCc3nc(C(=O)N4CCCC4)co3)cc2C1c1cccc(F)c1 (configuration not stated)
1.7 min	Cc1noc(C)c1C(=O)N1CCC2(CCCN(C(c3ccccc3)c3ccccc3)C2)CC1
22 min	Cc1cc(-c2nc(Nc3ccc(F)c(F)c3)c3ccccc3n2)ccn1
1.47 min	COc1ccc(Cn2c(CCC(=O)Nc3cc(C)cc(C)c3)nc3cccnc32)cc1
10.5 min	Cc1ccc(N2CCN(c3cnn(-c4nc5ccccc5s4)c(=O)c3Cl)CC2C)cc1 (configuration not stated)
22 min	COc1cc(Nc2nc(-c3ccncc3)nc3ccccc23)ccc1NS(C)(=O)=O
5.39 min	NC(=O)C1CCN(c2nc(-c3ccc(C(F)(F)F)cc3)cs2)CC1
4.4 min	O=C(c1ccc2c(c1)ncn2-c1cccc(C(F)(F)F)c1)N1CCCCC1
1.53 min	CSc1ccc(-c2cnc(N3CCC(C(N)=O)CC3)s2)cc1
5.9 min	COc1cccc(CNC(=O)c2c(OC)cc(=O)n3c2CCN(C(=O)c2ccc(C)cc2C)CC3)c1
6.3 min	Cc1ccc(NC(=O)Nc2cc3c(cc2N2CCCCC2)n(C)c(=O)n3C)cc1Cl
8.83 min	COCCCOc1ccnc(CS(=O)c2nc3ccccc3[nH]2)c1C (configuration not stated)
7.2 min	CCc1ccccc1C(=O)N1CCc2cc(-c3nc(NC(=O)Cc4ccc5c(c4)OCO5)sc3C)ccc21
> 30 min	Cc1noc(C)c1-c1ccc2ncnc(N3CCC(C(=O)O)CC3)c2c1
8.62 min	COCCNc1ncc(-c2cccc(O)c2)c2c1OCC2
3.2 min	Cc1noc(C)c1-c1ccc2ncnc(NCc3ccc4[nH]ccc4c3)c2c1
2.8 min	CCOc1ccc(CCNC(=O)c2ccc(C(=O)c3ccccc3)cc2)cc1OCC
> 30 min	COc1cc2nc(N3CCCC3)nc(NCCCCCN3CCCC3)c2cc1OC
15 min	Cc1cc(C)nc(NC(=S)N2CCN(c3ccc(Cl)cc3[N+](=O)[O-])CC2)c1
> 30 min	Fc1ccc(N2CCCN(CC3[C@H]4CNC[C@@H]34)CC2)cc1 (some centres not stated)
10 min	O=C1CCC(C(=O)N2CCSCC2)CN1Cc1ccc(Cl)cc1 (configuration not stated)
> 30 min	CCN1CCN(CC(=O)Nc2ccc(-c3cccc4c(=O)cc(N5CCOCC5)oc34)c3sc4ccccc4c23)CC1
6.21 min	CC(C)c1ccccc1-c1nc2c(c(NCc3ccc(-c4cccnc4)cc3)n1)CNC2
> 30 min	Cc1cc(-c2nc(Nc3ccc(F)c(F)c3)c3ccccc3n2)cc(C)n1

half-life	Structure (SMILES)
> 30 min	CCn1nc(C2CCN(C(=O)CCO)CC2)nc1-c1cnc(N)c(-c2nnc(C(C)(C)C)o2)n1
28 min	CC(=O)c1ccc(N2CCN(S(=O)(=O)c3cc4c(cc3Cl)NC(=O)C4)CC2)cc1
15.7 min	Cn1ccc2c(C(=O)NCc3cccnc3)nc(-c3ccc(CO)cc3)cc21
> 30 min	CN(C)C(=O)c1cc(-c2ccc(S(C)(=O)=O)cc2)c2cnn(C)c2n1
6.22 min	COc1ccccc1Nc1cnc2ccc(-c3ccc(OC)c(OC)c3)nn12
> 30 min	O=C(O)c1ccnc2cc(-c3nc4ccccc4n3CCN3CCCCC3)sc12
3.2 min	CC(=O)c1c(C)[nH]c(C(=O)Nc2cccc([S+](=O)([O-])N3CC[C@@H](F)C3)c2)c1C
> 30 min	NC(=O)c1cnc(N[C@@H]2CCCC[C@@H]2N)nc1Nc1cccc(-n2nccn2)c1
> 30 min	COc1cccc(CNc2ccc(S(=O)(=O)Nc3ccc(N4CCNCC4)cc3)cc2)c1O
> 30 min	COc1cc2c(cc1OCCCN1CCCC1)N=C(N)C21CCC1
3.09 min	CC(C)Oc1cccc(-c2csc(N3CCC(C(N)=O)CC3)n2)c1
1.65 min	COc1ccc(CN2CCc3nc(N4CCN(c5ccc(F)cc5)CC4)ncc3C2)c(OC)c1OC
3.2 min	COc1ccccc1-n1cnc2cc(C(=O)N3CCCCC3)ccc21
2.62 min	NC(=O)C1CCN(c2nc(-c3ccc4ccccc4c3)cs2)CC1
1.9 min	COc1ccc(CN2CCN(C(=O)c3cc4c(s3)CCC4)CC2)cc1
1 min	COc1c(C)c2c(c(O)c1C/C=C(\C)CCC(=O)OCCN1CCOCC1)C(=O)OC2
5.8 min	Clc1ccc(-c2noc3ncnc(N4CCCCC4)c23)cc1
> 30 min	Cc1ncc2c(c1CNC(=O)Cn1cnc3ccccc3c1=O)CCNC2
> 30 min	FC(F)(F)c1cccc(N2CCN(C(=S)Nc3nccc4ccccc34)CC2)c1
2.5 min	Cc1cc(-c2nnc3n2CCCCC3)c(C)n1-c1ccc([N+](=O)[O-])cc1
2.18 min	c1ccc(-c2nc(N3CCCCCC3)c3ccccc3n2)nc1
2.6 min	Cc1cnc(-c2ccccc2C(C)C)nc1NCC1CN(c2cccnc2)C1
9.3 min	COc1ccc(CNC(=O)c2cnc3ccccc3n2)cc1
3.6 min	Cc1cc(-c2nnc3n2CCCCC3)c(C)n1-c1ccc(C#N)cc1
